Data from patent publication US20250009692A1, “Micronutrient composition to prevent and reverse protein glycation during oxidative stress in human” (priority 2023, published 2025).

Assays:
[1] = system: subunit I of Complex IV (COX-I); experiment: Mitobiogenesis In-Cell ELISA, COX-I levels in H9c2 cells; format: cell-based, Rat; conditions: H9c2 heart muscle cells, 24 hours treatment; FIG. 7
Procedure: (§1) Mitobiogenesis: MitoBiogenesis™ In-Cell ELISA Kit (Colorimetric) was purchased from Abcam (Cambridge, UK). H9c2 Cells were grown to confluency in 96 well plates and treated with test ingredients for 24 hours at 37° C. Media was removed and cells were washed with Phosphate Buffered Saline provided in the kit. The cells were then fixed and processed as per the protocol provided with the kit. This assay was used to quantify two mitochondrial proteins: subunit I of Complex IV (COX-I) and the 70 kDa subunit of Complex II (SDH-A). No treatment control was used to show relative protein levels in each case.

[2] = system: Succinate Dehydrogenase (SDH) subunit A; experiment: Mitobiogenesis In-Cell ELISA, SDH-A levels in H9c2 cells; format: cell-based, Rat; conditions: H9c2 cardiac muscle cells, 24 hours treatment; FIG. 6
Procedure: as §1

[3] = system: Microglial Cells (IMG) exposed to Hydrogen Peroxide; experiment: Cell Protection from Oxidative Stress (Alamar Blue viability); format: cell-based, mice; conditions: IMG cells pretreated 24 hours, H2O2 1 hour, 24 hours recovery; FIG. 8
Excerpt: Cell Lines: Rat Cardiomyoblasts (H9c2) were obtained from ATCC (Virginia, USA). […] Cells were maintained in Dulbecco's Modified Eagle's Medium (DMEM) from Thermofisher (MA, USA) supplemented with 10% Fetal Bovine Serum (FBS) from Thermofisher (MA, USA) and 1% Penicillin-Streptomycin (PS) from MilliporeSigma (MA, USA). Microglial Cells (IMG) were obtained from Kerafast (MA, USA). It is an immortalized microglial cell line isolated from the brains of adult mice. Cells were maintained in DMEM supplemented with 10% FBS and 1% PS.
Cell Protection from Oxidative Stress: IMG cells were grown to confluency and pretreated with test compounds for 24 hours at 37° C. Media was removed and cells were exposed to Hydrogen Peroxide for 1 hour at 37° C. After one hour, H2O2 was removed and cells were incubated in DMEM supplemented with 1% BSA for a further 24 hours at 37° C. to allow them to stabilize. Subsequently, cell viability was assessed using Alamar Blue Cell Viability Reagent from Thermofisher (MA, USA). Alamar Blue Reagent is an oxidized form of redox indicator that is blue in color. When incubated with viable cells, the reagent changes color from blue to red and can be measured by absorbance at 570 nm.
We tested protective effects of individual natural compounds and their combinations in microglial cells exposed to oxidative stress generated by hydrogen peroxide.

| Molecule | increase of Cox-1 levels compared to control [1] | increase of SDH levels compared to control [2] | survival of cells exposed to hydrogen peroxide (viable cells) [3] |
| --- | --- | --- | --- |
| N[C@@H](CS)C(=O)O [cysteine, L Cysteine] | 41% |  |  |
| O=C([O-])CC(O)C(=O)[O-].[Mg+2] (stereo not drawn) [magnesium malate, Magnesium Malate] |  | 86% | about 50% |
| CSCC[C@H](N)C(=O)O [methionine, Methionine] |  |  | about 50% |
| CC(=O)C(=O)[O-].[Na+] [sodium pyruvate, Sodium Pyruvate] |  | 54% |  |
| Magnesium Citrate |  |  | about 50% |
